Source: ChEMBL document CHEMBL4507291 (2021)

Tests used:
[1] = target: MAP kinase-activated protein kinase 2 (Homo sapiens) (UniProt P49137)
[2] = system: Hepatocyte growth factor receptor (Homo sapiens), P08581 [M1250T]
[3] = target: Serine/threonine-protein kinase DCLK3 (Homo sapiens) (UniProt Q9C098)
[4] = target: Serine/threonine-protein kinase RIO1 (Homo sapiens) (UniProt Q9BRS2)
[5] = target: Mitogen-activated protein kinase kinase kinase kinase 5 (Homo sapiens) (UniProt Q9Y4K4)
[6] = target: Insulin receptor (Homo sapiens) (UniProt P06213)
[7] = target: T1, MAP/microtubule affinity-regulating kinase 4 (Homo sapiens) (UniProt Q96L34)
T1 sequence (whole entry): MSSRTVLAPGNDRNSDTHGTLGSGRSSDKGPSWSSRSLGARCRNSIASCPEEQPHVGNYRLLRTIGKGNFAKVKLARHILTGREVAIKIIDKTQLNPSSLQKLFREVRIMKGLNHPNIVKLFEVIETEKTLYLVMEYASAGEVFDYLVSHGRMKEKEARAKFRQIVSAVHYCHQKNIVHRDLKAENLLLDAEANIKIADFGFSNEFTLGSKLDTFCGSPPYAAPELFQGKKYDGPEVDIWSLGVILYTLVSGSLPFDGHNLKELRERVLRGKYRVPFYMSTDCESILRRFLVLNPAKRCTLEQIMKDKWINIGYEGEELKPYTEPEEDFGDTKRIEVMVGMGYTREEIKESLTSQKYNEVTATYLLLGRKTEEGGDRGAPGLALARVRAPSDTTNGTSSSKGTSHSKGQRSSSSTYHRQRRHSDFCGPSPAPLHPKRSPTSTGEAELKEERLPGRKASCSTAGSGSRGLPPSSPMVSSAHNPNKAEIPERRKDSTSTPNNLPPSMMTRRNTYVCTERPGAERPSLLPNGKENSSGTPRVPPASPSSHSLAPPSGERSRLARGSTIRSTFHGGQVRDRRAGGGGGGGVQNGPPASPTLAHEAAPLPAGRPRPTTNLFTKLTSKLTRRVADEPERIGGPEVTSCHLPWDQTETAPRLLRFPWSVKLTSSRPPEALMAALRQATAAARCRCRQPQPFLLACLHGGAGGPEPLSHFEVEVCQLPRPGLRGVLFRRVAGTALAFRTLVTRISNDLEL

[8] = target: BDNF/NT-3 growth factors receptor (Homo sapiens) (UniProt Q16620)
[9] = target: Proto-oncogene tyrosine-protein kinase receptor Ret (Homo sapiens) (UniProt P07949)
[10] = target: T2, Muscarinic acetylcholine receptor M5 (Homo sapiens) (UniProt P08912); settings: Compound concentration 10.0 uM
T2 sequence (whole entry): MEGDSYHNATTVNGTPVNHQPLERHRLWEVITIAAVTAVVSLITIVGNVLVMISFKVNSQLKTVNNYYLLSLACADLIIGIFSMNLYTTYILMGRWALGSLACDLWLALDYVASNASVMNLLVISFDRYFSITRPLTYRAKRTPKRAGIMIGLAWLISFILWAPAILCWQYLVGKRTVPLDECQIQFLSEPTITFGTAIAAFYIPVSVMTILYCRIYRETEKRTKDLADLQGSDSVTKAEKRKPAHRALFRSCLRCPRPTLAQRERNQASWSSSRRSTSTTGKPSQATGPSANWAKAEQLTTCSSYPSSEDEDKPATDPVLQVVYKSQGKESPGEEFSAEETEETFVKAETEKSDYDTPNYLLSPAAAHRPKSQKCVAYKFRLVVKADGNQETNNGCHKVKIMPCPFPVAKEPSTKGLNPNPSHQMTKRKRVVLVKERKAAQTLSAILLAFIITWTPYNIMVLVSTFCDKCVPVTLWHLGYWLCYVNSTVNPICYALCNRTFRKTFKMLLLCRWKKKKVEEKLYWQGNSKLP

[11] = target: Calcium/calmodulin-dependent protein kinase kinase 2 (Homo sapiens) (UniProt Q96RR4)
[12] = target: Serine/threonine-protein kinase SBK1 (Homo sapiens) (UniProt Q52WX2)
[13] = target: Dual specificity protein kinase CLK3 (Homo sapiens) (UniProt P49761)
[14] = target: T3, Protein kinase C iota type (Homo sapiens) (UniProt P41743)
T3 sequence (whole entry): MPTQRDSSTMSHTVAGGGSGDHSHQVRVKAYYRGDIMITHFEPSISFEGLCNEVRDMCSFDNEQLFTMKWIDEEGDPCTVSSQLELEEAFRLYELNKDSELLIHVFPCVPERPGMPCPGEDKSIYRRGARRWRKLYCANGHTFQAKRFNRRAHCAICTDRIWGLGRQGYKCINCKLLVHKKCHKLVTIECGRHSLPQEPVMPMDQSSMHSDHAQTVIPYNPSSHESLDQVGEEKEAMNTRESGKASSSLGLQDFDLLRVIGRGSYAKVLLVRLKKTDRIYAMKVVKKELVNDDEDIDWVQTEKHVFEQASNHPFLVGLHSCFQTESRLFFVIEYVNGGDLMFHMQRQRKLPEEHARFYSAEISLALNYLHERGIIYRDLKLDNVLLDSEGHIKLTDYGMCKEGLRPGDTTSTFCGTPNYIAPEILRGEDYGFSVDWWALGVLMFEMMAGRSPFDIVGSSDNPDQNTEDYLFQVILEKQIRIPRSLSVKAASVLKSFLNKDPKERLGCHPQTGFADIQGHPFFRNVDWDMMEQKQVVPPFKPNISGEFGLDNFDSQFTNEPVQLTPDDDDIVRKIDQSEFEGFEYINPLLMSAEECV

[15] = target: Serine/threonine-protein kinase N2 (Homo sapiens) (UniProt Q16513)
[16] = target: Mitogen-activated protein kinase kinase kinase 10 (Homo sapiens) (UniProt Q02779)
[17] = system: Epidermal growth factor receptor (Homo sapiens), P00533 [UNDEFINED MUTATION]
[18] = target: Cyclin-G-associated kinase (Homo sapiens) (UniProt O14976)
[19] = target: Cyclin-dependent kinase 3 (Homo sapiens) (UniProt Q00526)
[20] = target: Phosphatidylinositol 5-phosphate 4-kinase type-2 beta (Homo sapiens) (UniProt P78356)
[21] = Compound concentration 1000.0 nM
[22] = Compound concentration 100.0 nM

Proto-oncogene tyrosine-protein kinase receptor Ret (Homo sapiens), sequence (P07949 whole entry): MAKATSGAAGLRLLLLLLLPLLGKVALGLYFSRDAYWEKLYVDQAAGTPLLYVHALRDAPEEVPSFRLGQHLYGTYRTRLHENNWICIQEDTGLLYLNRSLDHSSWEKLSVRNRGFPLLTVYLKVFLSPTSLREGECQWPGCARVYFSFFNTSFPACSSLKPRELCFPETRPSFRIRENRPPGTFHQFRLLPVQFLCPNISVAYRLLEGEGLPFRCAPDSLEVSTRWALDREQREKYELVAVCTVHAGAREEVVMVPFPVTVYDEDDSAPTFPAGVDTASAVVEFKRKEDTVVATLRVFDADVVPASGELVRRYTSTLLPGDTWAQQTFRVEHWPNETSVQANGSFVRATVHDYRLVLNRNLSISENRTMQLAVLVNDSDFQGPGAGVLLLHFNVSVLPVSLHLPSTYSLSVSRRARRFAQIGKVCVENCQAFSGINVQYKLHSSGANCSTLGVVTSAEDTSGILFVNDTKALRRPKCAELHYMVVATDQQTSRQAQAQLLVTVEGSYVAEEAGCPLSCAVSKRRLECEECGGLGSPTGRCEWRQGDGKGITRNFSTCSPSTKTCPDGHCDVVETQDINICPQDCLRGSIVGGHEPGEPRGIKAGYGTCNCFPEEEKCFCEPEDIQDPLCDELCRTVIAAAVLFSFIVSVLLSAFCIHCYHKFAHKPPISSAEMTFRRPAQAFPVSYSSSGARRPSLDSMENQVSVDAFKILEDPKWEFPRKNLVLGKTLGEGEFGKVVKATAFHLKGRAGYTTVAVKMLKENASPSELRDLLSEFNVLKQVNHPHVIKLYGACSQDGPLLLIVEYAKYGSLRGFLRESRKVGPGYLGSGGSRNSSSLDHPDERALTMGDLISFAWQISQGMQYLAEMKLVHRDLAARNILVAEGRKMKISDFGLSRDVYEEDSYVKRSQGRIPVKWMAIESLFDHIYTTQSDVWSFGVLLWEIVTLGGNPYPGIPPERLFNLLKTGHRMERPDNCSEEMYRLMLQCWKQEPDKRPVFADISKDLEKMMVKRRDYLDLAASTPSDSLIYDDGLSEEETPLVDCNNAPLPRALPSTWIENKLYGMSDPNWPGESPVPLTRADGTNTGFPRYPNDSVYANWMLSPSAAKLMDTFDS
Mitogen-activated protein kinase kinase kinase 10 (Homo sapiens), sequence (Q02779 whole entry, looked up): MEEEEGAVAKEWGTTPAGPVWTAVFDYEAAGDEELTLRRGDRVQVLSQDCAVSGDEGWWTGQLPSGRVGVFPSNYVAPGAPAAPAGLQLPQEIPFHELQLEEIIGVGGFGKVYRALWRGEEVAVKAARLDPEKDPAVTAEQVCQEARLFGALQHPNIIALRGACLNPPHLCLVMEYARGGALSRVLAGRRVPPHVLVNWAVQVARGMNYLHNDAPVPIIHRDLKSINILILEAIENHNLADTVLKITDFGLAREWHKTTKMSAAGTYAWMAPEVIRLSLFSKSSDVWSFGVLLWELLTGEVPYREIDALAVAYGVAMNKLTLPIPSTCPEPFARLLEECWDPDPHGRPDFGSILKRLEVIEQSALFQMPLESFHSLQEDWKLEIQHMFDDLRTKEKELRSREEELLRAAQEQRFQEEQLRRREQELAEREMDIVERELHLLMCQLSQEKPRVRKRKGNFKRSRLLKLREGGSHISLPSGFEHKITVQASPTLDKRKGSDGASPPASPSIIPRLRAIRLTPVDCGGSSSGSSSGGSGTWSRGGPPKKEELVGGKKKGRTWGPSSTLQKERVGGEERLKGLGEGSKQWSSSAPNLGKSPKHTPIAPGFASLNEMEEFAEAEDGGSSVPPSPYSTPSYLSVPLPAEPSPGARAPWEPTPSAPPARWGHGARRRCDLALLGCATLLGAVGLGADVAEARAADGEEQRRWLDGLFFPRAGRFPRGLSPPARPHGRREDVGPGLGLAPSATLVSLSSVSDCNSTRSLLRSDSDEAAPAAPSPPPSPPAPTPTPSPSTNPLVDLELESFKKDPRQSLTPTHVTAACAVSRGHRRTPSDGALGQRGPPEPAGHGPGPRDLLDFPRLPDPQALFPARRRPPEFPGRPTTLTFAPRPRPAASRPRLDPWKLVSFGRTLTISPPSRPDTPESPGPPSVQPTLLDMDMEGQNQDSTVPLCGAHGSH
BDNF/NT-3 growth factors receptor (Homo sapiens), sequence (Q16620 32-822 limits assumed): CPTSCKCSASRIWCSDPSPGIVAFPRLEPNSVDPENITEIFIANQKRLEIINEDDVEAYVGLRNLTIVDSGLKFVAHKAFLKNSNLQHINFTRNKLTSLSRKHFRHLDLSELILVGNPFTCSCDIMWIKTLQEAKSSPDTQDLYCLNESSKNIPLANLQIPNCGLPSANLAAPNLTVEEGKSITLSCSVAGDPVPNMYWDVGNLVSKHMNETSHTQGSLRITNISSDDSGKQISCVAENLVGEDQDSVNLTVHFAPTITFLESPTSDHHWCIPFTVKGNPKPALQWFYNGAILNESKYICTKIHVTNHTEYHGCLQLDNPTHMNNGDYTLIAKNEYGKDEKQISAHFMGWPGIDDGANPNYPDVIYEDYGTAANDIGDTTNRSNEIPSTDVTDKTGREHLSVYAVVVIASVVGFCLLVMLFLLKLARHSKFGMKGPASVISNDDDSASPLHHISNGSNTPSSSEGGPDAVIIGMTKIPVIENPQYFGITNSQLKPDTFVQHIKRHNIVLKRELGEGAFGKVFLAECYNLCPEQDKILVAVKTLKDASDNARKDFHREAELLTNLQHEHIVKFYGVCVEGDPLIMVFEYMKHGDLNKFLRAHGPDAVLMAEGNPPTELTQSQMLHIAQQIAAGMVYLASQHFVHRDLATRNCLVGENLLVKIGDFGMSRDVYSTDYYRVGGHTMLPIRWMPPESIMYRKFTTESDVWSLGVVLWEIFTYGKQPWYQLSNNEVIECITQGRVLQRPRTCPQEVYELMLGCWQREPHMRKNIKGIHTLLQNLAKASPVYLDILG
Mitogen-activated protein kinase kinase kinase kinase 5 (Homo sapiens), sequence (Q9Y4K4 whole entry, looked up): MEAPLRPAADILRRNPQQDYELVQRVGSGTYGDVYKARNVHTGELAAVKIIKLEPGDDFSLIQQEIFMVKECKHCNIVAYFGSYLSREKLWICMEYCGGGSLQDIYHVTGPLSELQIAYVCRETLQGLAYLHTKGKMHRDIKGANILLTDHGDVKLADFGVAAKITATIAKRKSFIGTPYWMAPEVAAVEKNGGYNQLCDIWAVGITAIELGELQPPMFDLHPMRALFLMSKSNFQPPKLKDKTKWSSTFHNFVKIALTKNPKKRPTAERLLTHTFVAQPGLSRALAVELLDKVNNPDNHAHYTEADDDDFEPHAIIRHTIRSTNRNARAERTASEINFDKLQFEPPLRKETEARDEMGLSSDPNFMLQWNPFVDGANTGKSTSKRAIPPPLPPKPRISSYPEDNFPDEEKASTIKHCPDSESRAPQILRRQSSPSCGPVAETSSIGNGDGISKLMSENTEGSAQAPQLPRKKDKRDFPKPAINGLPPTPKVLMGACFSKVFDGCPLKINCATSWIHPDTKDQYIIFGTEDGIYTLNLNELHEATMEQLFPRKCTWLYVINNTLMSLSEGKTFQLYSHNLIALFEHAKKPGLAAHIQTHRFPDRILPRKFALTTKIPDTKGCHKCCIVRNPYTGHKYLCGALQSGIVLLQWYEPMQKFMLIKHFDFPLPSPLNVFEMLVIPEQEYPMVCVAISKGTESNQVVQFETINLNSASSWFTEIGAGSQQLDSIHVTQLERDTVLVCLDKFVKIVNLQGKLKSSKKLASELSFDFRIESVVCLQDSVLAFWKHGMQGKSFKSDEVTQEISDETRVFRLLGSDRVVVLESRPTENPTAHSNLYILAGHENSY
Cyclin-dependent kinase 3 (Homo sapiens), sequence (Q00526 whole entry, looked up): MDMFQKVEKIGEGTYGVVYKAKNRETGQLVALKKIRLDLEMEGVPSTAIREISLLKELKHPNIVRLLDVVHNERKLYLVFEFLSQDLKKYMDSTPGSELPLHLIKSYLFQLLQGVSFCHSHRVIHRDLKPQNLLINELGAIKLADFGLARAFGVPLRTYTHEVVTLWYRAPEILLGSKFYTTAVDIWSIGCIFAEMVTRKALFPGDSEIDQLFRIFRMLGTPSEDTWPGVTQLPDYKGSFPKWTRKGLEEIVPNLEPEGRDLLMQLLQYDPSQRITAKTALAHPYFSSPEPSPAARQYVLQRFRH
Serine/threonine-protein kinase N2 (Homo sapiens), sequence (Q16513 whole entry, looked up): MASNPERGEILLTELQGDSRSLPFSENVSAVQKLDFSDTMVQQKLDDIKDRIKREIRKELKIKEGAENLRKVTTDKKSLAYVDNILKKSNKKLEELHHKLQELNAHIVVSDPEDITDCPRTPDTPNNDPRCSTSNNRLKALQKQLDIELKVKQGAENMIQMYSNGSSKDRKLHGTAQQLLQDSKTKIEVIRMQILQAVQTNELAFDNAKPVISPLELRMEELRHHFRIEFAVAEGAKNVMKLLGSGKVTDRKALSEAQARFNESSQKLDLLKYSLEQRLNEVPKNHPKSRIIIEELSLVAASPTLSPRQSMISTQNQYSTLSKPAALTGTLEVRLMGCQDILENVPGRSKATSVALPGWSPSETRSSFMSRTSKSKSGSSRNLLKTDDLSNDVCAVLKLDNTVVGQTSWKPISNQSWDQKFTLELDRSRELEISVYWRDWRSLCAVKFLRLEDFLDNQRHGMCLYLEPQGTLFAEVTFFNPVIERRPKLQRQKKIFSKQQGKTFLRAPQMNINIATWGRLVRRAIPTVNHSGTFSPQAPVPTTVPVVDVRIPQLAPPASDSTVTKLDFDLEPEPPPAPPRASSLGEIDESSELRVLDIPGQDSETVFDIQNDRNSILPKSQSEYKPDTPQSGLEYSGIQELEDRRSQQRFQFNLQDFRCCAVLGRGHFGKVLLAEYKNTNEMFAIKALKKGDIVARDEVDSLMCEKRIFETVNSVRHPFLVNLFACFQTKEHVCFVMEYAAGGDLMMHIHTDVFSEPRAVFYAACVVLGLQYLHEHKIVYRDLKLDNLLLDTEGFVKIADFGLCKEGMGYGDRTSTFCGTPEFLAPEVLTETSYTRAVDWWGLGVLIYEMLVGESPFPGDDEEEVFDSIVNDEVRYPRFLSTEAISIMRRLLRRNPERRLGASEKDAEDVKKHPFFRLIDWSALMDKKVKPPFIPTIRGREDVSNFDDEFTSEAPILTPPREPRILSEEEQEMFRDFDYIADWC

C[C@@H]1CN(c2cc(-c3nn(C)c4ccc(OC5(C)CC5)cc34)ncn2)C[C@H](C)O1 [MLi-2-NC]
inactive: residual activity [1, 21] 93% | residual activity [2, 21] 93% | residual activity [3, 21] 77% | residual activity [4, 21] 89% | residual activity [5, 21] 100% | residual activity [6, 21] 100% | residual activity [7, 21] 100% | residual activity [8, 21] 65% | residual activity [9, 21] 96% | inhibition [10] 2.87% | residual activity [11, 21] 85% | residual activity [12, 21] 62% | residual activity [13, 21] 98% | residual activity [14, 21] 100% | residual activity [15, 21] 100% | residual activity [16, 21] 100% | residual activity [17, 21] 100% | residual activity [18, 21] 86% | residual activity [19, 21] 98% | residual activity [20, 21] 84%

C[C@@H]1CN(c2cc(-c3n[nH]c4ccc(OC5(C)CC5)cc34)ncn2)C[C@H](C)O1 [MLi-2]
inactive: residual activity [1, 22] 96% | residual activity [2, 22] 79% | residual activity [3, 22] 92% | residual activity [4, 22] 100% | residual activity [5, 22] 100% | residual activity [6, 22] 100% | residual activity [7, 22] 100% | residual activity [8, 22] 67% | residual activity [9, 22] 100% | inhibition [10] 1% | residual activity [11, 22] 100% | residual activity [12, 22] 88% | residual activity [13, 22] 94% | residual activity [14, 22] 80% | residual activity [15, 22] 89% | residual activity [16, 22] 100% | residual activity [17, 22] 51% | residual activity [18, 22] 86% | residual activity [19, 22] 76% | residual activity [20, 22] 81%
